According to patent publication US20200010910A1, “Cytotoxic Chemotherapy-Based Predictive Assays for Acute Myeloid Leukemia” (The Regents of The University of California, priority 2017, published 2020):
“And” between values parts separate entries of the source, which are not always exact repeats. Equal entries are not always repeated.

Key:
A549 = test: carboplatin-DNA monoadducts by AMS; assay type: cell-based, human
Method: (§1) NSCLC cell lines were cultured to >90% confluence, dosed with [^14C]carboplatin, and subjected to DNA isolation and AMS analysis. 60 mm dishes were seeded at a density of 1×10^6 cells/dish and allowed to attach overnight in a 37° C. humidified atmosphere containing 5% CO2. At hour 0, cells were dosed with 1 μM (relevant microdose concentration) or 100 μM carboplatin (therapeutically relevant concentration), each comprising 0.3 μM [^14C]carboplatin (50,000 dpm/ml). Cells were incubated with [^14C]carboplatin for 4 h before washing and cultured with carboplatin-free medium to mimic the in vivo carboplatin half-life (1.3-6 hours) in patients. DNA was harvested from the cell lines at hours 0, 2, 4, 8 and 24 hours after initial dosing. Ten micrograms of DNA per sample was converted to graphite and measured by AMS for ^14C/total C quantification. Triplicate sets of AMS experiments were performed for each cell line and time point. The 14C/total C ratio was converted to 14C atoms per DNA base-pair according to the algorithm described herein to provide values of carboplatin-DNA monoadducts per 10^8 nucleotides. The data was plotted as carboplatin-DNA monoadducts per 10^8 nucleotide (nt) vs time (FIGS. 8A and 8B). There was a time-dependent increase in the carboplatin-DNA monoadduct concentration during the first 4 hours of incubation with therapeutic or microdosing carboplatin (FIGS. 8A and 8B). After the cells were washed and incubated with carboplatin-free media, the monoadduct levels decreased over a period of several hours. […] Carboplatin-DNA monoadduct levels in the microdosing group had essentially the same kinetics as the therapeutic group, but with 100-fold lower adduct levels at each time point (FIGS. 8A and 8B).

H1975 = test: carboplatin-DNA monoadducts by AMS; assay type: cell-based, human
Method: as §1

H23 = test: carboplatin-DNA monoadducts by AMS; assay type: cell-based, human
Method: as §1

H460 = test: carboplatin-DNA monoadducts by AMS; assay type: cell-based, human
Method: as §1

H727 = test: carboplatin-DNA monoadducts by AMS; assay type: cell-based, human
Method: as §1

HCC827 = test: carboplatin-DNA monoadducts by AMS; assay type: cell-based, human
Method: as §1

5637 = test: MTT assay IC50, bladder cancer cell line; assay type: cell-based, human; conditions: 72 hours
Method: Thus, we measured the IC50 of the six NSCLC cell lines from Example 2 to both cisplatin and carboplatin to determine if the sensitivity of these six NSCLC cell lines to the two drugs are correlated.
Drug-DNA adduct formation and repair was measured by accelerator mass spectrometry.
These two cell lines were also cultured with a range of concentrations of cisplatin, carboplatin, gemcitabine, doxorubicin, methotrexate and vinblastine for 72 hours to determine IC50 for these other drugs (FIG. 16C). These drugs were chosen because of their frequent use in the treatment of bladder cancer.

Tumor Tissue = test: microdose-induced carboplatin-DNA monoadducts in patients; assay type: in vivo, human
Method: Based upon the previous mouse studies that identified a minimal microdose for accurate AMS analysis of carboplatin monoadducts (1% of therapeutic carboplatin containing 50,000 DPM/gm of mouse body weight), the first in-human evaluation of microdose [^14C]carboplatin was conducted at this same equivalent formulation. The mouse radioactive dose (50,000 DPM/gm), adjusted for body surface area differences between mouse and humans, is equivalent to a dose of 1.0×10^7 DPM/kg of human body weight. The carboplatin dose for human chemotherapy is personalized to a patient's size and kidney function and is calculated using the Calvert formula with an AUC of 6 (Calvert, A. H., et al. “Carboplatin dosage: prospective evaluation of a simple formula based on renal function.” Journal of Clinical Oncology 7.11 (1989): 1748-1756). […] After blood collection, the BD Vacutainer CPT™ tubes were gently inverted several times to ensure mixing with heparin anticoagulant. The tubes were immediately placed on ice or stored at 4° C. and_then processed within 2 hours of collection to separate plasma and PBMC. For processing, the blood filled BD Vacutainer CPT™ tubes were centrifuged at room temperature in a horizontal rotor for 25 minutes at 1600×g. The top plasma layer was transferred to separate tubes and stored at or below −70° C. After most of the plasma was removed from the CPT tube, PBMC were transferred to another tube and washed three times with ice-cold phosphate-buffered solution (PBS). After pelleting the cells and removing the supernatant, the PBMC's were stored frozen at −80° C. until being processed to isolate DNA for determination of the carboplatin-DNA monoadduct frequency. […]
As we have shown in cell culture and mouse tumor xenograph experiments, the carboplatin-DNA monoadduct frequency is proportional to the dose and time integrated exposure to carboplatin. […] DNA from PBMC and tumor tissue was extracted and analyzed by AMS for carboplatin-DNA monoadduct frequency. […]

[1] = safety of radiolabeled microdose in patients; conditions: IV microdose, 1% of the therapeutic dose
Method: Microdoses of the [^14C]Carboplatin were administered to human cancer patients as a diagnostic reagent, followed by full dose platinum-based chemotherapy and evaluation of response. Within four weeks of the [^14C]carboplatin microdose, these patients received standard of care chemotherapy for their disease, which included either carboplatin or cisplatin. The patient population consisted of non-small cell lung cancer patients (NSCLC), stage IV with measurable lesions, and bladder transitional cell carcinoma (TCC) patients, stage II disease and above for neoadjuvant treatment, or stage III and IV metastatic disease with measurable lesions for palliative chemotherapy. Patients were identified for this study as having measurable lesions using the Response Evaluation Criteria in Solid Tumor (RECIST), an Eastern Cooperative Oncology Group performance status of <2, and adequate bone marrow and vital organ function. PBMC and tumor tissue were collected from the patients for analysis of carboplatin-DNA monoadduct frequencies. Toxicity of the [^14C]carboplatin diagnostic reagent administered as a microdose was assessed using Common Terminology Criteria for Adverse Events (CTCAE). Toxicities of grade 3 and above were also collected for patient specific toxic response to full dose chemotherapy for correlation analysis to carboplatin-DNA monoadduct frequency. Patient response to chemotherapy was evaluated using the RECIST for correlation to carboplatin-DNA monoadduct frequency.
The dose of carboplatin in the diagnostic microdose was chosen to be sub-toxic and non-therapeutic, to minimize patient chemical and radiation exposure, and to result in AMS measurable carboplatin-DNA monoadducts. Nineteen patients have been administered at least one microdose of [^14C]carboplatin via IV infusion as a diagnostic reagent. Patient toxicity related to the microdose was monitored from the time of IV microdose until the patients received their first chemotherapy. […] The total radioactive dose given to a 75 kg patient after an IV microdose of [^14C]carboplatin is calculated to be 338 μCi. […]

[2] = 1 μM carboplatin 4 h, up to 24 hours
[3] = 1 μM carboplatin 4 h then drug-free
[4] = 100 μM carboplatin 4 h, up to 24 hours
[5] = 100 μM carboplatin 4 h then drug-free

N.N.O=C([O-])C1(C(=O)[O-])CCC1.[Pt+2] [carboplatin]
Adduct level-4 hr-microdose (A549; 1 μM carboplatin): 2.0 ± 0.4 /10^8 nt
AUC of adduct-microdose (A549; [2]): 31.5 ± 1.6 hr-adducts/10^8 nt
Adduct level-24 hr Microdose (A549; [3]): 0.9 ± 0.0 /10^8 nt
Adduct level-4 hr-therapeutic (A549; 100 μM carboplatin): 163 ± 74.4 /10^8 nt
AUC of adduct-therapeutic (A549; [4]): 2331 ± 257 hr-adducts/10^8 nt
Adduct level-24 hr-therapeutic (A549; [5]): 74 ± 10.4 /10^8 nt
Adduct level-4 hr-microdose (H1975; 1 μM carboplatin): 3.3 ± 0.5 /10^8 nt
AUC of adduct-microdose (H1975; [2]): 47.0 ± 4.8 hr-adducts/10^8 nt
Adduct level-24 hr Microdose (H1975; [3]): 1.1 ± 0.6 /10^8 nt
Adduct level-4 hr-therapeutic (H1975; 100 μM carboplatin): 322 ± 24.1 /10^8 nt
AUC of adduct-therapeutic (H1975; [4]): 4478 ± 353 hr-adducts/10^8 nt
Adduct level-24 hr-therapeutic (H1975; [5]): 108 ± 33.3 /10^8 nt
Adduct level-4 hr-microdose (H23; 1 μM carboplatin): 7.4 ± 1.4 /10^8 nt
AUC of adduct-microdose (H23; [2]): 136.6 ± 9.0 hr-adducts/10^8 nt
Adduct level-24 hr Microdose (H23; [3]): 5.4 ± 0.1 /10^8 nt
Adduct level-4 hr-therapeutic (H23; 100 μM carboplatin): 825 ± 5.8 /10^8 nt
AUC of adduct-therapeutic (H23; [4]): 13255 ± 835 hr-adducts/10^8 nt
Adduct level-24 hr-therapeutic (H23; [5]): 414 ± 27.1 /10^8 nt
Adduct level-4 hr-microdose (H460; 1 μM carboplatin): 6.8 ± 0.2 /10^8 nt
AUC of adduct-microdose (H460; [2]): 85.6 ± 8.4 hr-adducts/10^8 nt
Adduct level-24 hr Microdose (H460; [3]): 1.0 ± 0.4 /10^8 nt
Adduct level-4 hr-therapeutic (H460; 100 μM carboplatin): 885 ± 36.3 /10^8 nt
AUC of adduct-therapeutic (H460; [4]): 9488 ± 902 hr-adducts/10^8 nt
Adduct level-24 hr-therapeutic (H460; [5]): 177 ± 11.5 /10^8 nt
Adduct level-4 hr-microdose (H727; 1 μM carboplatin): 6.23 ± 2.73 /10^8 nt
AUC of adduct-microdose (H727; [2]): 61.7 ± 9.0 hr-adducts/10^8 nt
Adduct level-24 hr Microdose (H727; [3]): 1.3 ± 0.1 /10^8 nt
Adduct level-4 hr-therapeutic (H727; 100 μM carboplatin): 684 ± 223.5 /10^8 nt
AUC of adduct-therapeutic (H727; [4]): 6111 ± 661 hr-adducts/10^8 nt
Adduct level-24 hr-therapeutic (H727; [5]): 174 ± 5.6 /10^8 nt
Adduct level-4 hr-microdose (HCC827; 1 μM carboplatin): 2.5 ± 0.0 /10^8 nt
AUC of adduct-microdose (HCC827; [2]): 51.7 ± 2.4 hr-adducts/10^8 nt
Adduct level-24 hr Microdose (HCC827; [3]): 1.8 ± 0.3 /10^8 nt
Adduct level-4 hr-therapeutic (HCC827; 100 μM carboplatin): 295 ± 58.8 /10^8 nt
AUC of adduct-therapeutic (HCC827; [4]): 4941 ± 739 hr-adducts/10^8 nt
Adduct level-24 hr-therapeutic (HCC827; [5]): 162 ± 15.4 /10^8 nt
IC50 5637: 24.3 µM
IC50 (5637; listed as Carboplatin): 24.35 ± 0.12 µM
24 h adducts Tumor (Tumor Tissue; Bladder cancer, individual patients): 20.2 per 10^8 nt and 14.8 per 10^8 nt and 5.37 per 10^8 nt and 3.13 per 10^8 nt and 0.31 per 10^8 nt and 42.5 per 10^8 nt and 8.79 per 10^8 nt and 0.923 per 10^8 nt
24 h adducts Tumor (Tumor Tissue; Hodgkin patient): 4.58 per 10^8 nt
24 h adducts Tumor (Tumor Tissue; NSCLC, individual patients): 0.87 per 10^8 nt and 0.66 per 10^8 nt and 1.3 per 10^8 nt
clinical side effects [1]: None of the clinical side effects associated with standard therapeutic doses of carboplatin were observed
tolerability of radiolabeled microdose [1]: well tolerated
